Measurements: patent US20250163104A1, “MACROCYCLIC IMMUNOMODULATORS” (priority 2021, published 2025)
Where a SMILES comes first, the peptide text is derived from it. Bridges are numbered along the chain shown (N, C = ends). [ ]: non-standard residue; d: D form. The star is where a group is joined. Bip = N[C@@H](Cc1ccc(-c2ccccc2)cc1)C(=O)O; Phe(3-OMe) = COc1cccc(C[C@H](N)C(=O)O)c1; Phe(2-Cl) = N[C@@H](Cc1ccccc1Cl)C(=O)O; 4Pal = N[C@@H](Cc1ccncc1)C(=O)O; Cha = N[C@@H](CC1CCCCC1)C(=O)O; Carboxymethyl = O=C(O)C*; Orn = NCCC[C@H](N)C(=O)O; Dab = NCC[C@H](N)C(=O)O; Dap = NC[C@H](N)C(=O)O

Target: T1, human PD-1 / PD-L1-Ig binding on Jurkat cell line over-expressing human PD-1 (Jurkat-PD-1) (Homo sapiens, UniProt Q15116)
T1 construct: expressed in transfected cells; host or cells: Jurkat
T1 sequence (Q15116 25-288): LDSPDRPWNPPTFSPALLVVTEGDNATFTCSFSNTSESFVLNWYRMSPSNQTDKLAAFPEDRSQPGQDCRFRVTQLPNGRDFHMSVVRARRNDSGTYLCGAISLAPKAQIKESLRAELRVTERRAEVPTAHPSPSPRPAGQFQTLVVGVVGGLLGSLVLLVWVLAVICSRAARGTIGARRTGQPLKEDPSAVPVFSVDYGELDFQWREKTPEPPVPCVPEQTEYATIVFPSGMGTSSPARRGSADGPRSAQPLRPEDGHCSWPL
Assay: Jurkat-PD-1 Cell Binding High-Content Screening Assay (CBA)
Format: cell-based
Conditions: Jurkat-PD-1 cells, PE-labeled PD-L1-Ig 20 nM final; read-out: Jurkat HPD1_PDL1 IC50
In short: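 Read-out: high-content imaging of PE-tagged PD-L1-Ig bound to Jurkat cells overexpressing human PD-1, after fixation with 4% paraformaldehyde and Hoechst 33342 nuclear staining. Ligand was used at 20 nM final for 1 hour, after a 2 h compound exposure at 37° C in serum-containing DMEM.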

Row | IC50 | SMILES
1 | 9 nM | COc1cccc(C[C@@H]2NC(=O)[C@H](CC(=O)O)NC(=O)[C@H](Cc3ccncc3)NC(=O)[C@H](CN)NC(=O)CSC[C@@H](C(=O)N[C@@H](C)C(N)=O)NC(=O)[C@H]([C@@H](C)O)NC(=O)[C@H](C(C)C)NC(=O)[C@H](CC3CCCCC3)NC(=O)[C@H](CCN)NC(=O)[C@@H](CC(C)C)NC(=O)[C@H](CCCN)NC(=O)[C@H](CCC(=O)O)NC(=O)[C@H](Cc3ccc(-c4ccccc4)cc3)NC(=O)[C@H](C(C)C)NC2=O)c1 [Compound 1546] ({CH2CO}-[Dap][4Pal]D[Phe(3-OMe)]V[Bip]E[Orn][dL][Dab][Cha]VTCA-NH2; thioether N-14)
2 | 209 nM | Cc1cccc(C[C@@H]2NC(=O)[C@H](CC(=O)O)NC(=O)[C@H](Cc3ccc(OCC(=O)O)cc3)NC(=O)[C@H](Cc3ccncc3)NC(=O)CSC[C@@H](C(=O)N[C@@H](CCN)C(N)=O)NC(=O)[C@H](CO)NC(=O)[C@H](C(C)(C)O)NC(=O)[C@H](CC3CCCCC3)NC(=O)[C@H](CCN)NC(=O)[C@@H](CC(C)C)NC(=O)C(C3CCNCC3)NC(=O)[C@H](Cc3ccc(OCC(=O)O)cc3)NC(=O)[C@H](Cc3ccc(-c4ccccc4)cc3)NC(=O)[C@H](Cc3ccc(OCC(=O)O)cc3)NC2=O)c1 (mixture of isomers) [Compound 2084]
3 | 34.8 nM | CC(C)C[C@H]1NC(=O)[C@H](CCCN)NC(=O)[C@H](CCC(=O)O)NC(=O)[C@H](Cc2ccc(-c3ccccc3)cc2)NC(=O)[C@H](C(C)C)NC(=O)[C@H](Cc2c[nH]c3ccccc23)NC(=O)[C@H](CC(=O)O)NC(=O)[C@H](Cc2ccc(OCC(=O)O)cc2)NC(=O)[C@H](CN)NC(=O)CSC[C@@H](C(=O)N[C@@H](C)C(N)=O)NC(=O)[C@H]([C@@H](C)O)NC(=O)[C@H](C(C)C)NC(=O)[C@H](Cc2ccccc2Cl)NC(=O)[C@H](CCN)NC1=O [Compound 1483] ({CH2CO}-[Dap]Y(Carboxymethyl)DWV[Bip]E[Orn][dL][Dab][Phe(2-Cl)]VTCA-NH2; thioether N-14)
